This data set in a line: Permeation of solutes through the composite membrane, side-by-side diffusion cell. It counts as physicochemical. To be noted: for P(45° C.)/P(20° C.) in 0.0001M KCl: permeability ratio across composite membrane, 45° C. vs 20° C. On the procedure:
Permeation of solutes of various molecular sizes through the membrane was determined using a side-by-side diffusion cell. The solution in the receptor cell was pumped to a UV cell with a peristaltic pump. The amount of solute permeated was assayed by a diode array spectrophotometer (HP 8452A). The pH of the medium was adjusted either by addition of sodium hydroxide and hydrochloric acid.

Turning to `CC(=O)Nc1ccc(O)cc1` [Acetaminophen], the “P(45° C.)/P(20° C.) in 0.0001M KCl” value was found to be 2.20. Moreover, under “composite membrane, DDI water (FIG. 5)”, the “ratio of the permeability at 40° C. to that at 25° C.” value was “about 2.6 times”.

On to Chymotrypsin, for which the “P(45° C.)/P(20° C.) in 0.0001M KCl” value is on record as “No permeation at both”. Besides, under “at the studied temperatures”, the “penetration through the membrane” value is “could not penetrate through the membrane”.

On to Vitamin B12, for which the “P(45° C.)/P(20° C.) in 0.0001M KCl” value is 11.0. The “permeability at 45° C. relative to that at 20° C.” value (composite membrane, in the presence of CaCl2 (3.33×10^−2 mM, FIG. 7), calculated from slopes) was “about 11 fold”. For the same compound, the “permeation across the membrane into water at 25° C.” value (water, 25° C. compared with 40° C. (FIG. 6)) is recorded as “almost negligible permeation”.

The values are drawn from patent US6565872B2, “Polymeric system for drug delivery and solute separation” (priority 1999, dated 2003).
